The text below walks through data of US7288555B2 (priority 2001, dated 2007).

Experiment [1] has as its system vine downy mildew (Plasmopara viticola). The following applies: in vivo.
In experiment [2] the test system is potato blight (Phytophthora infestans). It counts as in vivo. The following applies: Solanum tuberosum Bintje, infection 48 h after treatment, read after 6 days, 3 repeats, confidence interval in brackets; for ED50 (confidence interval): effective dose providing 50% control; for ED70 (confidence interval): effective dose providing 70% control; for ED90 (confidence interval): effective dose providing 90% control.

Consider `O=C(NCc1ncc(C(F)(F)F)cc1Cl)c1c(Cl)cccc1Cl` [Compound A, 2,6-dichloro-N-{[3-chloro-5-(trifluoromethyl)-2-pyridinyl]methyl}benzamide], for which, in experiment [1], the “ED50 (confidence interval)” value was 6.6 (4-10.9) mg/l and the “ED70 (confidence interval)” value is reported as 12.5 (8-19.6) mg/l. In addition, in experiment [2], the “ED50 (confidence interval)” value is listed as 19.9 (12-33) mg/l, the “ED70 (confidence interval)” value is on record as 43.5 (24.5-77.2) mg/l and the “ED90 (confidence interval)” value is on record as 151.2 (61.5-371.8) mg/l.
Turning to `Cc1ccc(C(C)NC(=O)[C@@H](NC(=O)OC(C)C)C(C)C)cc1` (stereo partly shown) [Compound B, iprovalicarb], in experiment [1], the “ED50 (confidence interval)” value is 7.3 (4.9-11) mg/l and the “ED70 (confidence interval)” value was 17.5 (11.8-25.9) mg/l. For the same compound, in experiment [2], the “ED50 (confidence interval)” value was 27.8 (18.3-42.2) mg/l, the “ED70 (confidence interval)” value was 69.3 (43.7-109.9) mg/l and the “ED90 (confidence interval)” value was 296.6 (136.2-646) mg/l.
